Each block holds one compound with its values, some of them ahead of it.
How the values were obtained:
CAL-51 [1] = assay: normalised response (% of control), CellTiter-Glo; higher = more viable cells (100 = DMSO, 0 = benzethonium chloride kill control); conditions: incubation time: 72 h
Method in brief: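 Compound was dispensed into 384-well plates at 5 concentrations in 10-fold steps spanning a 10,000-fold range specific to that compound. Breast cancer cell lines were added as 20 µl suspension and left for 72 h before CellTox Green fluorescence (485/520 nm) and then CellTiter-Glo luminescence, read after 10 min at room temperature. Each reported value is the normalised signal at one concentration, with 0.1 % DMSO set at 100 and a positive kill control at 0 on each plate.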

MDA-MB-468 [2] = conditions: 72 h
Method in brief: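 Breast cancer cell lines (20 µl suspension) were seeded into 384-well plates holding compound at 5 concentrations in 10-fold steps over a compound-specific 10,000-fold range, then incubated 72 h. Cell death was read first by CellTox Green fluorescence (485/520 nm), then viability by CellTiter-Glo luminescence after 10 min at room temperature. Each plate was normalised to 0.1 % DMSO and a positive kill control. EC50 was fitted from the dose-response curves and censored at the top concentration.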

HCC1143 = assay: normalised viability (% of control), CellTiter-Blue; higher = more viable cells (about 100 = DMSO control); conditions: incubation time: 72 h
Method in brief: (§1)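 Seeded at 20 µl suspension per well onto compound-loaded 384-well plates, breast cancer cell lines were incubated 72 h. CellTiter-Blue fluorescence at 560/590 nm was then read, with each plate normalised to vehicle (100) and a positive kill control (0). Normalised viability is reported at a single listed concentration of the series.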

CAL-51 [3] = assay: as above; conditions: incubation time: 72 h
Method in brief: as §1

HCC1937 = assay: as above; conditions: incubation time: 72 h
Method in brief: as §1

MDA-MB-436 = assay: as above; conditions: incubation time: 72 h
Method in brief: as §1

MDA-MB-468 [4] = assay: as above; conditions: incubation time: 72 h
Method in brief: as §1

MFM-223 = assay: as above; conditions: incubation time: 72 h
Method in brief: as §1

CAL-120 = assay: as above; conditions: incubation time: 72 h
Method in brief: as §1

SK-BR-3 = assay: as above; conditions: incubation time: 72 h
Method in brief: as §1

BT-549 = assay: as above; conditions: incubation time: 72 h
Method in brief: as §1

CAL-85-1 = assay: as above; conditions: incubation time: 72 h
Method in brief: as §1

HCC1599 = assay: as above; conditions: incubation time: 72 h
Method in brief: as §1

Hs578T = assay: as above; conditions: incubation time: 72 h
Method in brief: as §1

BT-474 = assay: as above; conditions: incubation time: 72 h
Method in brief: as §1

MDA-MB-231 = assay: as above; conditions: incubation time: 72 h
Method in brief: as §1

MDA-MB-453 = assay: as above; conditions: incubation time: 72 h
Method in brief: as §1

CAL-148 = assay: as above; conditions: incubation time: 72 h
Method in brief: as §1

HDQ-P1 = assay: as above; conditions: incubation time: 72 h
Method in brief: as §1

DU-4475 = assay: as above; conditions: incubation time: 72 h
Method in brief: as §1

SMILES: Cn1cc(C2=Nc3cc(NC(=O)C(N)C4CCCCC4)cc4c3C2=CNNC4=O)cn1 (stereo not given) (10000 nM)
normalised response (CAL-51 [1]): 25.2%

SMILES: COc1cc2c(cc1O)CC[C@@H]1[C@@H]2CC[C@]2(C)[C@@H](O)CC[C@@H]12 [2-methoxyestradiol] (10000 nM)
normalised response (CAL-51 [1]): 31.1%

SMILES: Cc1sc2c(c1C)C(c1ccc(Cl)cc1)=N[C@@H](CC(=O)OC(C)(C)C)c1nnc(C)n1-2 [(+)JQ1] (10000 nM)
normalised response (CAL-51 [1]): 47.5%

EC50, CellTiter-Glo (MDA-MB-468 [2]): > 10 µM
SMILES: CC1(C)CCC(CN2CCN(c3ccc(C(=O)NS(=O)(=O)c4ccc(NCC5CCOCC5)c([N+](=O)[O-])c4)c(Oc4cnc5[nH]ccc5c4)c3)CC2)=C(c2ccc(Cl)cc2)C1 [ABT-199]

SMILES: Oc1ncnc2[nH]ncc12 [Allopurinol] (10000 nM)
normalised response (CAL-51 [1]): 131%

SMILES: O=C1CN2Cc3c(ccc(Cl)c3Cl)N=C2N1 [Anagrelide] (10000 nM)
normalised response (CAL-51 [1]): 88%

SMILES: Nc1ncn([C@@H]2O[C@H](CO)[C@@H](O)[C@H]2O)c(=O)n1 [Azacitidine] (10000 nM)
normalised response (CAL-51 [1]): 91.2%

SMILES: O=NN(CCCl)C(=O)NCCCl [Carmustine] (10000 nM)
normalised response (CAL-51 [1]): 116%

SMILES: CC1=C2C[C@H]3[C@@H](CC=C4C[C@@H](O)CC[C@@]43C)[C@@H]2CC[C@]12O[C@@H]1C[C@H](C)CN[C@H]1[C@H]2C [Cyclopamine] (10000 nM)
normalised response (CAL-51 [1]): 106%

SMILES: CC(=O)O[C@@]12CO[C@@H]1C[C@H](O)[C@@]1(C)C(=O)[C@H](O)C3=C(C)[C@@H](OC(=O)[C@H](O)[C@@H](NC(=O)OC(C)(C)C)c4ccccc4)C[C@@](O)([C@@H](OC(=O)c4ccccc4)[C@H]21)C3(C)C [Docetaxel] (1000 nM)
normalised response (CAL-51 [1]): 32.9%

SMILES: C[C@]12CC[C@@H]3c4ccc(OC(=O)N(CCCl)CCCl)cc4CC[C@H]3[C@@H]1CC[C@@H]2O [Estramustine]
normalised viability (HCC1143; 0.99 nM): 109%
normalised viability (HCC1143; 99 nM): 106%
normalised viability (HCC1143; 990 nM): 114%
normalised viability (CAL-51 [3]; 0.297 nM): 88.7%
normalised viability (CAL-51 [3]; 2.97 nM): 86.3%
normalised viability (CAL-51 [3]; 9.9 nM): 86.7%
normalised viability (HCC1937; 0.99 nM): 88.9%
normalised viability (HCC1937; 99 nM): 75%
normalised viability (HCC1937; 990 nM): 92.2%
normalised viability (MDA-MB-436; 0.99 nM): 95%
normalised viability (MDA-MB-436; 99 nM): 96.1%
normalised viability (MDA-MB-436; 990 nM): 99.4%
normalised viability (MDA-MB-468 [4]; 0.99 nM): 102%
normalised viability (MDA-MB-468 [4]; 99 nM): 103%
normalised viability (MDA-MB-468 [4]; 990 nM): 117%
normalised viability (MFM-223; 0.99 nM): 101%
normalised viability (MFM-223; 99 nM): 98.3%
normalised viability (MFM-223; 990 nM): 103%
normalised viability (CAL-120; 0.99 nM): 113%
normalised viability (CAL-120; 99 nM): 107%
normalised viability (CAL-120; 990 nM): 105%
normalised viability (SK-BR-3; 0.99 nM): 99.1%
normalised viability (SK-BR-3; 99 nM): 97.5%
normalised viability (SK-BR-3; 990 nM): 101%
normalised viability (BT-549; 0.99 nM): 82.7%
normalised viability (BT-549; 99 nM): 89.6%
normalised viability (BT-549; 990 nM): 87.2%
normalised viability (CAL-85-1; 0.297 nM): 100%
normalised viability (CAL-85-1; 2.97 nM): 90.9%
normalised viability (CAL-85-1; 9.9 nM): 101%
normalised viability (HCC1599; 0.99 nM): 89%
normalised viability (HCC1599; 99 nM): 76.9%
normalised viability (HCC1599; 990 nM): 98.3%
normalised viability (Hs578T; 0.99 nM): 113%
normalised viability (Hs578T; 99 nM): 100%
normalised viability (Hs578T; 990 nM): 98%
normalised viability (BT-474; 0.99 nM): 116%
normalised viability (BT-474; 99 nM): 115%
normalised viability (BT-474; 990 nM): 116%
normalised viability (MDA-MB-231; 0.99 nM): 100%
normalised viability (MDA-MB-231; 99 nM): 109%
normalised viability (MDA-MB-231; 990 nM): 119%
normalised viability (MDA-MB-453; 0.297 nM): 89.2%
normalised viability (MDA-MB-453; 2.97 nM): 102%
normalised viability (MDA-MB-453; 9.9 nM): 101%
normalised viability (CAL-148; 0.297 nM): 118%
normalised viability (CAL-148; 2.97 nM): 101%
normalised viability (CAL-148; 9.9 nM): 106%
normalised viability (HDQ-P1; 0.297 nM): 107%
normalised viability (HDQ-P1; 2.97 nM): 106%
normalised viability (HDQ-P1; 9.9 nM): 109%
normalised viability (DU-4475; 0.297 nM): 93.6%
normalised viability (DU-4475; 2.97 nM): 99.3%
normalised viability (DU-4475; 9.9 nM): 108%

EC50, CellTiter-Glo (MDA-MB-468 [2]): > 10 µM
SMILES: CC1(C)CNc2cc(NC(=O)c3cccnc3NCc3ccncc3)ccc21 [Motesanib]
normalised viability (HCC1143; 10 nM): 79.9%
normalised viability (HCC1143; 1000 nM): 82.4%
normalised viability (HCC1143; 10000 nM): 70.4%
normalised viability (CAL-51 [3]; 3 nM): 109%
normalised viability (CAL-51 [3]; 30 nM): 110%
normalised viability (CAL-51 [3]; 100 nM): 97.2%
normalised viability (HCC1937; 10 nM): 104%
normalised viability (HCC1937; 1000 nM): 91.5%
normalised viability (HCC1937; 10000 nM): 88.5%
normalised viability (MDA-MB-436; 10 nM): 72.5%
normalised viability (MDA-MB-436; 1000 nM): 63%
normalised viability (MDA-MB-436; 10000 nM): 73%
normalised viability (MDA-MB-468 [4]; 10 nM): 88.3%
normalised viability (MDA-MB-468 [4]; 1000 nM): 85.3%
normalised viability (MDA-MB-468 [4]; 10000 nM): 88.2%
normalised viability (MFM-223; 10 nM): 80.8%
normalised viability (MFM-223; 1000 nM): 76.4%
normalised viability (MFM-223; 10000 nM): 83.2%
normalised viability (CAL-120; 10 nM): 74.4%
normalised viability (CAL-120; 1000 nM): 78.3%
normalised viability (CAL-120; 10000 nM): 82.4%
normalised viability (SK-BR-3; 10 nM): 83.3%
normalised viability (SK-BR-3; 1000 nM): 88.9%
normalised viability (SK-BR-3; 10000 nM): 78.9%
normalised viability (BT-549; 10 nM): 79.1%
normalised viability (BT-549; 1000 nM): 93.5%
normalised viability (BT-549; 10000 nM): 79.2%
normalised viability (CAL-85-1; 3 nM): 83.1%
normalised viability (CAL-85-1; 30 nM): 80.9%
normalised viability (CAL-85-1; 100 nM): 85.3%
normalised viability (HCC1599; 10 nM): 83.8%
normalised viability (HCC1599; 1000 nM): 98.1%
normalised viability (HCC1599; 10000 nM): 95.9%
normalised viability (Hs578T; 10 nM): 104%
normalised viability (Hs578T; 1000 nM): 95.5%
normalised viability (Hs578T; 10000 nM): 95.7%
normalised viability (BT-474; 10 nM): 109%
normalised viability (BT-474; 1000 nM): 101%
normalised viability (BT-474; 10000 nM): 103%
normalised viability (MDA-MB-231; 10 nM): 69.8%
normalised viability (MDA-MB-231; 1000 nM): 77.3%
normalised viability (MDA-MB-231; 10000 nM): 72.8%
normalised viability (MDA-MB-453; 3 nM): 96.1%
normalised viability (MDA-MB-453; 30 nM): 71.3%
normalised viability (MDA-MB-453; 100 nM): 69.6%
normalised viability (CAL-148; 3 nM): 94.8%
normalised viability (CAL-148; 30 nM): 83.7%
normalised viability (CAL-148; 100 nM): 90.7%
normalised viability (HDQ-P1; 3 nM): 76.7%
normalised viability (HDQ-P1; 30 nM): 95.1%
normalised viability (HDQ-P1; 100 nM): 86.6%
normalised viability (DU-4475; 3 nM): 85.6%
normalised viability (DU-4475; 30 nM): 79.6%
normalised viability (DU-4475; 100 nM): 83.9%

SMILES: CC1(C)CNc2cc(NC(=O)c3cccnc3NCc3ccncc3)ccc21 [Motesanib] (10000 nM)
normalised response (CAL-51 [1]): 122%

Reference: the supplement of paper PMC4862054
